Measured values from patent US12251387B2, “Substituted quinoxalines and benzo[c][1,2,5]oxadiazoles as DNA-PK inhibitors” (Vertex Pharmaceuticals Incorporated, priority 2013, dated 2025).

Target: DNA-PK (Homo sapiens, UniProt P78527)
Assay: DNA-PK Inhibition Assay (standard radiometric kinase assay, 33P-ATP, peptide substrate)
Assay type: biochemical
Settings: radiometric assay, approximately 6 nM DNA-PK, 100 μM ATP, 45 min; fit to competitive tight-binding inhibition; read-out: Ki for the inhibition of DNA-PK
Outline: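 Radiometric transfer of 33P from ATP (100 μM) to peptide substrate (0.8 mg/mL) by about 6 nM DNA-PK with 10 μg/mL sheared dsDNA, pH 7.5 HEPES/MgCl2, 45 min, phosphoric acid quench, filter capture and scintillation counting. Ki fitted to a competitive tight-binding inhibition model.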

Row | Compound | Ki [µM]
1 | OCc1cnc2cc(N3CCOCC3)cc(O[C@H]3CC[C@@H](Nc4ncccn4)CC3)c2n1 [Compound 617] | < 0.1
2 | Cc1cc(N[C@H]2CC[C@@H](Oc3cc(N4CCOCC4)cc4nccnc34)CC2)n2ncnc2n1 [Compound 536] | < 0.1
3 | c1nc(N[C@H]2CC[C@@H](Oc3cc(N4CCOCC4)cc4nccnc34)CC2)cc(OC2CNC2)n1 [Compound 480] | < 0.1
4 | c1cnc2c(O[C@H]3CC[C@@H](Nc4ncc(OCCCN5CCCCC5)cn4)CC3)cc(N3CCOCC3)cc2n1 [Compound 507] | < 0.1
5 | CNC(=O)c1ccnc(N[C@H]2CC[C@@H](Oc3cc(C4=CCOCC4)cc4nccnc34)CC2)n1 [Compound 319] | < 0.1
6 | c1nc(N[C@H]2CC[C@@H](Oc3cc(N4CCOCC4)cc4nccnc34)CC2)c2c(n1)OCC2 [Compound 479] | < 0.1
7 | c1cnc2c(O[C@H]3CC[C@@H](Nc4ccc5c(n4)OCCO5)CC3)cc(N3CCOCC3)cc2n1 [Compound 631] | < 0.1
8 | CNC(=O)c1cccc(N[C@H]2CC[C@@H](Oc3cc(N4CCOCC4)cc4nccnc34)CC2)n1 [Compound 406] | < 0.1
9 | Cc1nc2c(c(N[C@H]3CC[C@@H](Oc4cc(N5CCOCC5)cc5nccnc45)CC3)n1)OCC2 [Compound 403] | < 0.1
10 | CCc1ncnc(N[C@H]2CC[C@@H](Oc3cc(C4=CCOCC4)cc4nccnc34)CC2)c1F [Compound 295] | < 0.1
11 | c1nc2c(c(N[C@H]3CC[C@@H](Oc4cc(N5CCOCC5)cc5nccnc45)CC3)n1)CCN2 [Compound 370] | < 0.1
12 | c1cnc2c(O[C@H]3C[C@@H](Nc4ncc5c(n4)COC5)C3)cc(N3CCOCC3)cc2n1 [Compound 355] | < 0.1
13 | Clc1cc2nccn2c(N[C@H]2CC[C@@H](Oc3cc(N4CCOCC4)cc4nccnc34)CC2)n1 [Compound 538] | < 0.1
14 | CN1CC[C@H](Nc2ncnc(N[C@H]3CC[C@@H](Oc4cc(N5CCOCC5)cc5nccnc45)CC3)c2F)C1 [Compound 343] | < 0.1
15 | c1cc(N[C@H]2CC[C@@H](Oc3cc(N4CCOCC4)cc4nccnc34)CC2)nc(N2CCOCC2)c1 [Compound 590] | < 0.1
16 | c1cnc2c(O[C@H]3CC[C@@H](Nc4ncc(CN5CCOCC5)cn4)CC3)cc(N3CCOCC3)cc2n1 [Compound 530] | < 0.1
17 | Cc1cnc2c(O[C@H]3CC[C@@H](Nc4ncc(C5CCN(C)CC5)cn4)CC3)cc(N3CCOCC3)cc2n1 [Compound 543] | < 0.1
18 | Oc1nc(N[C@H]2CC[C@@H](Oc3cc(N4CCOCC4)cc4nccnc34)CC2)nc(C2CC2)n1 [Compound 600] | < 0.1
19 | c1cnc(NC[C@H]2C[C@@H](Oc3cc(N4CCOCC4)cc4nccnc34)C2)nc1 [Compound 307] | < 0.1
20 | CN(C)CCNC(=O)c1cnc(N[C@H]2CC[C@@H](Oc3cc(N4CCOCC4)cc4nccnc34)CC2)nc1 [Compound 328] | < 0.1

Row | Compound | Ki [µM]
21 | NC(=O)c1csc(N[C@H]2CC[C@@H](Oc3cc(N4CCOCC4)cc4nccnc34)CC2)n1 [Compound 331] | < 0.1
22 | c1cc(N[C@H]2CC[C@@H](Oc3cc(N4CCOCC4)cc4nccnc34)CC2)n2ncnc2c1 [Compound 581] | < 0.1
23 | Cc1nc(N[C@H]2CC[C@@H](Oc3cc(N4CCOCC4)cc4nccnc34)CC2)c2occc2n1 [Compound 435] | < 0.1
24 | CN1CCc2ncnc(N[C@H]3CC[C@@H](Oc4cc(N5CCOCC5)cc5nccnc45)CC3)c2C1 [Compound 398] | < 0.1
25 | Cc1nccc(N[C@H]2CC[C@@H](Oc3cc(N4CCO[C@H](CO)C4)cc4nccnc34)CC2)n1 [Compound 320] | < 0.1
26 | c1cc2c(c(N[C@H]3CC[C@@H](Oc4cc(N5CCOCC5)cc5nccnc45)CC3)n1)CCN2 [Compound 371] | < 0.1
27 | CN1CCN(CCCOc2cnc(N[C@H]3CC[C@@H](Oc4cc(N5CCOCC5)cc5nccnc45)CC3)nc2)CC1 [Compound 508] | < 0.1
28 | Cc1nccc(N[C@H]2CC[C@@H](Oc3cc(N4CC5CCC(C4)O5)cc4nccnc34)CC2)n1 [Compound 297] | < 0.1
29 | COCc1cc(N[C@H]2CC[C@@H](Oc3cc(N4CC5CC(C4)O5)cc4nccnc34)CC2)nc(C)n1 [Compound 309] | < 0.1
30 | OC1CCN(c2cc(N[C@H]3CC[C@@H](Oc4cc(N5CCOCC5)cc5nccnc45)CC3)ncn2)CC1 [Compound 492] | < 0.1
31 | c1cnc(N[C@H]2C[C@@H](COc3cc(N4CCOCC4)cc4nccnc34)C2)nc1 [Compound 305] | < 0.1
32 | c1cc2c(c(N[C@H]3CC[C@@H](Oc4cc(N5CCOCC5)cc5nccnc45)CC3)c1)OCC2 [Compound 338] | < 0.1
33 | Cc1cnc2cc(N3CCOCC3)cc(O[C@H]3CC[C@@H](Nc4ncc(C5CCN(C)CC5)cn4)CC3)c2n1 [Compound 544] | < 0.1
34 | Cc1nccc(N[C@H]2CC[C@@H](Oc3cc(N4CCOCC4)cc4nonc34)CC2)n1 [Compound 316] | < 0.1
35 | c1cc(OCCN2CCOCC2)nc(N[C@H]2CC[C@@H](Oc3cc(N4CCOCC4)cc4nccnc34)CC2)n1 [Compound 560] | < 0.1
36 | NC(=O)c1cnc2cc(N3CCOCC3)cc(O[C@H]3CC[C@@H](Nc4ncccn4)CC3)c2n1 [Compound 606] | < 0.1
37 | CN1CCC[C@H]1CNc1ncnc(N[C@H]2CC[C@@H](Oc3cc(N4CCOCC4)cc4nccnc34)CC2)c1F [Compound 359] | < 0.1
38 | Cc1cc2nc(N[C@H]3CC[C@@H](Oc4cc(N5CCOCC5)cc5nccnc45)CC3)cc(=O)n2o1 [Compound 596] | < 0.1
39 | CN1CCN(Cc2cnc(N[C@H]3CC[C@@H](Oc4cc(N5CCOCC5)cc5nccnc45)CC3)nc2)CC1 [Compound 497] | < 0.1
40 | CCN1CCC(c2cnc(N[C@H]3CC[C@@H](Oc4cc(N5CCOCC5)cc5nccnc45)CC3)nc2)CC1 [Compound 523] | < 0.1

Now from value to molecule:

Row | Ki [µM] | Compound
41 | < 0.1 | CCOc1ccc(N[C@H]2CC[C@@H](Oc3cc(N4CCOCC4)cc4nccnc34)CC2)nc1 [Compound 658]
42 | < 0.1 | COc1ncc(N[C@H]2CC[C@@H](Oc3cc(N4CCOCC4)cc4nccnc34)CC2)cn1 [Compound 574]
43 | < 0.1 | [2H]C([2H])([2H])c1nccc(N[C@H]2CC[C@@H](Oc3cc(N4CCOCC4)cc4nccnc34)CC2)n1 [Compound 478]
44 | < 0.1 | Cn1nnnc1-c1cnc(N[C@H]2CC[C@@H](Oc3cc(N4CCOCC4)cc4nccnc34)CC2)nc1 [Compound 459]
45 | < 0.1 | Fc1cnc(N[C@H]2CC[C@@H](Oc3cc(N4CCOCC4)cc4nccnc34)CC2)c(F)c1 [Compound 594]
46 | < 0.1 | Cc1cncnc1N[C@H]1CC[C@@H](Oc2cc(N3CCOCC3)cc3nccnc23)CC1 [Compound 471]
47 | < 0.1 | COc1cnc(Cl)nc1N[C@H]1CC[C@@H](Oc2cc(N3CCOCC3)cc3nccnc23)CC1 [Compound 401]
48 | < 0.1 | CCc1cc(N[C@H]2CC[C@@H](Oc3cc(N4CCOCC4)cc4nccnc34)CC2)ncn1 [Compound 651]
49 | < 0.1 | COc1cccc(N[C@H]2CC[C@@H](Oc3cc(N4CCOCC4)cc4nccnc34)CC2)c1 [Compound 408]
50 | < 0.1 | Cc1cn(C)c(N[C@H]2CC[C@@H](Oc3cc(N4CCOCC4)cc4nccnc34)CC2)n1 [Compound 646]
51 | < 0.1 | c1nc(N[C@H]2CC[C@@H](Oc3cc(N4CCOCC4)cc4nccnc34)CC2)cc(C2CC2)n1 [Compound 650]
52 | < 0.1 | CN(C)c1cc(N[C@H]2CC[C@@H](Oc3cc(N4CCOCC4)cc4nccnc34)CC2)ncn1 [Compound 603]
53 | < 0.1 | CC(C)(O)c1ccc(N[C@H]2CC[C@@H](Oc3cc(N4CCOCC4)cc4nccnc34)CC2)nc1 [Compound 281]
54 | < 0.1 | Fc1cccnc1N[C@H]1CC[C@@H](Oc2cc(N3CCOCC3)cc3nccnc23)CC1 [Compound 591]
55 | < 0.1 | CC(C)(O)c1ncc(N[C@H]2CC[C@@H](Oc3cc(N4CCOCC4)cc4nccnc34)CC2)cn1 [Compound 341]
56 | < 0.1 | COc1ncc(F)c(N[C@H]2CC[C@@H](Oc3cc(N4CCOCC4)cc4nccnc34)CC2)n1 [Compound 396]

Row | Ki [µM] | Compound
57 | < 0.1 | CC1(C)OCc2cc(N[C@H]3CC[C@@H](Oc4cc(N5CCOCC5)cc5nccnc45)CC3)cnc21 [Compound 571]
58 | < 0.1 | c1cnc2c(O[C@H]3CC[C@@H](Nc4ncnc5[nH]cnc45)CC3)cc(N3CCOCC3)cc2n1 [Compound 516]
59 | < 0.1 | CN(C)Cc1cnc(N[C@H]2CC[C@@H](Oc3cc(N4CCOCC4)cc4nccnc34)CC2)nc1 [Compound 529]
60 | < 0.1 | COc1cccnc1N[C@H]1CC[C@@H](Oc2cc(N3CCOCC3)cc3nccnc23)CC1 [Compound 592]
61 | < 0.1 | CN(C)c1ccc(N[C@H]2CC[C@@H](Oc3cc(N4CCOCC4)cc4nccnc34)CC2)nn1 [Compound 598]
62 | < 0.1 | Cc1cc(N[C@H]2CC[C@@H](Oc3cc(N4CCOCC4)cc4nccnc34)CC2)ccn1 [Compound 285]
63 | < 0.1 | O=C(O)c1cc(N[C@H]2CC[C@@H](Oc3cc(N4CCOCC4)cc4nccnc34)CC2)ncn1 [Compound 653]
64 | < 0.1 | FC(F)(F)c1ccc(N[C@H]2CC[C@@H](Oc3cc(N4CCOCC4)cc4nccnc34)CC2)cn1 [Compound 427]
65 | < 0.1 | Cc1cccc(N[C@H]2CC[C@@H](Oc3cc(N4CCOCC4)cc4nccnc34)CC2)n1 [Compound 623]
66 | < 0.1 | Cc1ncc(C)c(N[C@H]2CC[C@@H](Oc3cc(N4CCOCC4)cc4nccnc34)CC2)n1 [Compound 490]
67 | < 0.1 | CC(C)NC(=O)c1cc(N[C@H]2CC[C@@H](Oc3cc(N4CCOCC4)cc4nccnc34)CC2)ncn1 [Compound 643]
68 | < 0.1 | c1cn2ccnc2c(N[C@H]2CC[C@@H](Oc3cc(N4CCOCC4)cc4nccnc34)CC2)n1 [Compound 372]
69 | < 0.1 | Cc1nnc2c(N[C@H]3CC[C@@H](Oc4cc(N5CCOCC5)cc5nccnc45)CC3)nccn12 [Compound 310]
70 | < 0.1 | COCCOc1cnc(N[C@H]2CC[C@@H](Oc3cc(N4CCOCC4)cc4nccnc34)CC2)nc1 [Compound 612]
71 | < 0.1 | c1cc(-c2cnc(N[C@H]3CC[C@@H](Oc4cc(N5CCOCC5)cc5nccnc45)CC3)nc2)[nH]n1 [Compound 462]
